# Experimental data published in US20080153872A1, “Bis-(Coumarin) Compounds With Anti-Inflammatory Activity” (priority 2005, published 2008).
# What was measured:
# human PDE3 = biological target: T1, human PDE3 (Homo sapiens, UniProt Q14432); experiment: Human PDE3 assay (platelets); type: biochemical; settings: 10 μM concentration
# T1 construct: Isolated human platelets are pre-incubated at 25° C; from tissue; host or cells: human platelets
# Protocol: (§1) All compounds were dissolved in dimethyl sulfoxide (DMSO). Final concentration of the DMSO in all tests was 1% (v/v). Inhibition in all tests is considered preferred if it exceeds 50% at 10 μM concentration (or less).
# PDE3 assay. Isolated human platelets are pre-incubated at 25° C. in Tris-HCl buffer containing magnesium ions for 15 minutes. 1.01 μM tritium labeled cyclic adenosine monophosphate (cAMP) is added as substrate, followed by incubation at 25° C. for 20 minutes. Percentage of inhibition is calculated by comparing the adenosine levels in supernatant which is formed from cAMP in treated versus control cells.
# Human ERK1 = biological target: T2, Human ERK1 (Homo sapiens, UniProt P27361); experiment: Human protein serine/threonine kinase, ERK1, assay; type: biochemical; settings: 10 μM
# T2 construct: made in house; host or cells: Escherichia coli
# T2 sequence (P27361 whole entry): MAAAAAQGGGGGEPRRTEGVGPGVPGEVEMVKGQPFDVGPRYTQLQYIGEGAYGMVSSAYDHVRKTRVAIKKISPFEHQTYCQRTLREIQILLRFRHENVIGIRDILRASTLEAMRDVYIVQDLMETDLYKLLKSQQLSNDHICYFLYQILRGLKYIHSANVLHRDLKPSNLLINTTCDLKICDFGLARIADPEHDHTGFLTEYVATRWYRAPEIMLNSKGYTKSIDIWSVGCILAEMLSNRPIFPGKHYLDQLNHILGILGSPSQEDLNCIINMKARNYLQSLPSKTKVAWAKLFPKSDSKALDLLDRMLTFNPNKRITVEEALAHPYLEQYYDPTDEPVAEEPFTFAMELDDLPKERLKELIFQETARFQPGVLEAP
# Protocol: as §1
# Human ERK1 is expressed in Escherichia coli and purified. Compounds are pre-incubated in MOPS/EGTA buffer with pervanadate, DTT and γ-[^32P]-ATP with recombinant enzyme for 15 minutes at 37° C. Substrate (purified myelin basic protein, MBP) is added, followed by incubation at 37° C. for 30 minutes. Enzyme activity is measured by quantitation of [^32P]-MBP and inhibition is calculated from specific radioactivity. ERK1 is a serine/threonine kinase activated in MAPK (mitogen activated kinase) pathway. ERK1 is implicated in a high proportion of human cancers, including Hodgkin disease. ERK1 is involved in processes of cell growth, division and inflammation.
# Human recombinant Lck = biological target: T3, Human recombinant Lck (Homo sapiens, UniProt P06239); experiment: Human protein tyrosine kinase, Lck, inhibition assay; type: biochemical; settings: 10 μM
# T3 construct: made in house; host or cells: Sf21 insect cells
# T3 sequence (P06239 whole entry): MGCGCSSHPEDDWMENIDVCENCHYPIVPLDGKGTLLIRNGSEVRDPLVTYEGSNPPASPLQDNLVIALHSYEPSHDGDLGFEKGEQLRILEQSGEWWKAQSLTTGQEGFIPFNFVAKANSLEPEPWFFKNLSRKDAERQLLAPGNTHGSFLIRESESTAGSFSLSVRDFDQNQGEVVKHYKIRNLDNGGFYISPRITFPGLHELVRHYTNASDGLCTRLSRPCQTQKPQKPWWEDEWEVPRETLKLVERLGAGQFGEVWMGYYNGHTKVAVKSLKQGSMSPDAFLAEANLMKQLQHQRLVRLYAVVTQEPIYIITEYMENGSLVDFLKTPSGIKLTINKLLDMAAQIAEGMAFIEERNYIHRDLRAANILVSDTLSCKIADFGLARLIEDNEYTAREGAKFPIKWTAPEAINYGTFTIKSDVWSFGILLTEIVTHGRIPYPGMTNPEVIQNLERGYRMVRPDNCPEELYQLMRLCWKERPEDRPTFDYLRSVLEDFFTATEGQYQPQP
# Protocol: as §1
# Human recombinant Lck is expressed in insect Sf21 expression system and purified. Substances are pre-incubated for 15 minutes at 25° C. in HEPES buffer containing ATP, pervanadate and magnesium. Substrate (poly Glu-Tyr) is added and incubated for 60 minutes at 25° C. Activity of the enzyme is measured using phosphotyrosine (p-Tyr) specific enzyme immunoassay and inhibition is calculated from the determination of the concentration of p-Tyr. Protein tyrosine kinase, Lck, is a protein tyrosine kinase which is abundantly expressed in T-lymphocytes and is essential for T-cell receptor signal transduction and thus activation of T-lymphocytes. Lck activation stimulates recruitment and activation of ZAP-70, which is essential for T-cell activation. Inhibitors of Lck act as immunoregulatory agents in various models. Lck is implicated in T-cell leukemias and inflammation.
# Tachykinin NK2 receptor = biological target: T4, Tachykinin NK2 receptor (Homo sapiens, UniProt P21452); experiment: Human tachykinin NK2 receptor assay (SR-48968 competition); type: binding; settings: 10 μM concentration; CHO-K1, competition with SR-48968
# T4 construct: expressed in transfected cells; host or cells: CHO-K1
# T4 sequence (P21452 1-398): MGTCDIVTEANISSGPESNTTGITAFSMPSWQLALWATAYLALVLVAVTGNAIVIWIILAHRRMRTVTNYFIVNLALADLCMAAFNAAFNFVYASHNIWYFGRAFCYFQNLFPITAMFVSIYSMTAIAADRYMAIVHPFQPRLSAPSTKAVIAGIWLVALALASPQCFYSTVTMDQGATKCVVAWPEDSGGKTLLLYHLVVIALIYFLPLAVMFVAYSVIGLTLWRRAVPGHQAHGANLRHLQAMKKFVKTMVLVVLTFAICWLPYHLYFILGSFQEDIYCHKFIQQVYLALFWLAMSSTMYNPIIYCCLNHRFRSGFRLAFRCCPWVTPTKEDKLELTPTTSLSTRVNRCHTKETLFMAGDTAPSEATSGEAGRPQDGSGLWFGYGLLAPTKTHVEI
# Protocol: as §1
# Tachykinin NK2 receptor is expressed in Chinese hamster ovary cell line, clone K1 (CHO-K1). Substances and radioactive competitor (tritium labelled SR-48968) are incubated with cells in HEPES/NaOH buffer for 90 minutes at 25° C. in the presence of manganese ions. Levels of the bound SR-48968 is measured by scintillation counting, and competition is calculated from the total amount of the bound SR-48968 in treated and control samples. Tachykinin receptors are involved in physiological and pathological processes of inflammation and pain. Tachykinin NK2 has been identified as a target for intervention in asthma, GI disease, irritable bowel syndrome and pancreatitis.
# IL-5 = experiment: Inhibition of IL-5 production by ConA stimulated mouse splenocytes; type: cell-based; settings: 25 μM
# Protocol: (§2) Spleen cell suspension was obtained from BALB/c mice and lymphocytes separated by gradient density centrifugation on Histopaque 1.083 on 400 g for 30 minutes. They were washed once in medium, counted and their number adjusted as 3×10^5/200 μL/well in 96 flat bottomed culture plate in RPMI supplemented with 10% fetal bovine serum. Cells were stimulated on cytokine production by adding concanavalinA (ConA) at 5 μg/mL final concentration. Unstimulated cells were cultured in medium alone. Stock solution was prepared out of testing compounds as 10 mM in DMSO. Final concentrations made in cell culture medium were tested when they had been added together with ConA. After 72 hours incubation period cell culture supernatants were collected. In each sample IL-4, IL-5, IL-10 and IFNγ were detected and quantified using enzyme linked immunosorbent assay (ELISA) specific for pointed cytokines (R&D Systems).
# (§3) To calculate results, standard curve was made out of measured OD values for recombinant protein in known concentrations. Cytokine content in unknown samples was calculated out of OD values extrapolated from the standard curve.
# (§4) Percentage of inhibition is calculated using formula:
# (§5) % Inhibition=(1−cytokine concentration of sample/cytokine concentration of positive control)×100.
# IL-10 = experiment: Inhibition of IL-10 production by ConA stimulated mouse splenocytes; type: cell-based; settings: 25 μM
# Protocol: as §2, §3, §4, §5
# T1 sequence (Q14432 whole entry): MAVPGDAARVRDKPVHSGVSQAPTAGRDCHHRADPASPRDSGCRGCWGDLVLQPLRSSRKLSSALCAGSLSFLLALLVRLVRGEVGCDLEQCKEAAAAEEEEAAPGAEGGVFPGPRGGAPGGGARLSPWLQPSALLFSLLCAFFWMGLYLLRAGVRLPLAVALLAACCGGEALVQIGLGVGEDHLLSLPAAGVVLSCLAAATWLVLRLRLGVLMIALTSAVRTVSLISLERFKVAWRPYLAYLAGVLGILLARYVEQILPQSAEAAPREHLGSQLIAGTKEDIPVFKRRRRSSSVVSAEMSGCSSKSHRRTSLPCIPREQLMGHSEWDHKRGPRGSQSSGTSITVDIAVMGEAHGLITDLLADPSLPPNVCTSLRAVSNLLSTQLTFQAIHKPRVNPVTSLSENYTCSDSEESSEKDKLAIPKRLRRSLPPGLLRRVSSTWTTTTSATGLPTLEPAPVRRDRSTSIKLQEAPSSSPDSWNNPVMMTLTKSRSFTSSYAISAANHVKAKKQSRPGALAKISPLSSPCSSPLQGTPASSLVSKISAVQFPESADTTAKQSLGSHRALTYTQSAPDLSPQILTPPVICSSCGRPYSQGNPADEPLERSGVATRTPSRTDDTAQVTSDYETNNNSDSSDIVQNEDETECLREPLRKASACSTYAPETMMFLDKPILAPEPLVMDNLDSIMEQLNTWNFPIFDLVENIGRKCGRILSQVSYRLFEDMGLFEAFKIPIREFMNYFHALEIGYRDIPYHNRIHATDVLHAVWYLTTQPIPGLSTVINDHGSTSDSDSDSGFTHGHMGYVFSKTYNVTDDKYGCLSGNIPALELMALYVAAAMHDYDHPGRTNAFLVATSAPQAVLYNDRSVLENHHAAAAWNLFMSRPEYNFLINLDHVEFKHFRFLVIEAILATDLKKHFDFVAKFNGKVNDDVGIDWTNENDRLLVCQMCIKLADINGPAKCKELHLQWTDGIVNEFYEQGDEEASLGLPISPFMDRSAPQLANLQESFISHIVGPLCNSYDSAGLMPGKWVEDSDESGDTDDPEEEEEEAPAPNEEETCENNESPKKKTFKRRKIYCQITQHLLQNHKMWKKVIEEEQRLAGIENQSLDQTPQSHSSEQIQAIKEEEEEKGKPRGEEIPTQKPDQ
Compound,inhibition of human PDE3 activity (human PDE3),inhibition of human ERK1 activity (Human ERK1),inhibition of human Lck activity (Human recombinant Lck),inhibition of NK2 activity (Tachykinin NK2 receptor),inhibition of IL-5 production (IL-5),inhibition of IL-10 production (IL-10)
CC(=O)C(c1c(O)c2cccc(C(C)C)c2oc1=O)c1c(O)c2cccc(C(C)C)c2oc1=O [Example 19],significantly inhibited,significantly inhibited,significantly inhibited,significant inhibition,significantly inhibited,
CC(C)c1cccc2c(O)c(C(CO)c3c(O)c4cccc(C(C)C)c4oc3=O)c(=O)oc12 [Example 30],significantly inhibited,,,,significantly inhibited,significantly inhibited
CC(C)c1cccc2c(O)c(C(C(=O)OCCO)c3c(O)c4cccc(C(C)C)c4oc3=O)c(=O)oc12 [Example 50],significantly inhibited,,,significant inhibition,,
